Assay results published in patent US10899738B2 (THE REGENTS OF THE UNIVERSITY OF MICHIGAN, priority 2016, dated 2021).

biological target: menin protein (Homo sapiens (Human), UniProt O00255); test: biochemical; format: binding; details: FP competitive binding; menin protein 4 nM, FAM-MM2 probe 2 nM
Outline: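 Competitive fluorescence polarization assay using FAM-labelled MLL1 peptide probe FAM-MM2 (2 nM final) preincubated with menin (4 nM final) in PBS with 0.02% bovine γ-globulin, 4% DMSO and 0.01% Triton X-100. Compounds were added and incubated 30 min at room temperature. IC50 came from nonlinear regression of competition curves, with Ki also derived.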

menin protein, sequence (O00255 whole entry): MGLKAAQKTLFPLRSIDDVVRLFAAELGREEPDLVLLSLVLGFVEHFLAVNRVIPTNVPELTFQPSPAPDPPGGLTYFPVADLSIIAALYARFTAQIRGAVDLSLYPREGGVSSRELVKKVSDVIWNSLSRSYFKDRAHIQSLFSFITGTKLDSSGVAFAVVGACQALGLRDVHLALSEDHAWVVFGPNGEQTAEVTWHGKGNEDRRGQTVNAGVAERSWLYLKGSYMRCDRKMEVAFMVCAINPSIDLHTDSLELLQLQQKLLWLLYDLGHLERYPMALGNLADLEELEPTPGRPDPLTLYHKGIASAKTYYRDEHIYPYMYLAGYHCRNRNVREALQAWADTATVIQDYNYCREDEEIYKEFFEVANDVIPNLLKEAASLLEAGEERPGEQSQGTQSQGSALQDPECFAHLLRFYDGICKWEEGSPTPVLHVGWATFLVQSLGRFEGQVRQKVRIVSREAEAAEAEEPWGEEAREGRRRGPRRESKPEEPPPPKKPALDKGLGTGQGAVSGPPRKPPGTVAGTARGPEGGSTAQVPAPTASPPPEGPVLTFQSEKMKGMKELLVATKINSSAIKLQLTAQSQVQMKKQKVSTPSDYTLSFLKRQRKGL

Menin Binding Affinity IC50 (μM)	SMILES
No inhibition	CCN1Cc2ccccc2C(C2CCCC2)(C2CCN(Cc3ccccc3Oc3ccc(S(=O)(=O)c4ccncc4)cc3)CC2)C1 (stereo not drawn) [compound 162, 4-cyclopentyl-2-ethyl-4-(1-(2-(4-(pyridin-4-ylsulfonyl)phenoxy)benzyl)piperidin-4-yl)-1,2,3,4-tetrahydroisoquinoline]

same assay, conditions: FP competitive binding; menin protein 4 nM, FAM-MM2 probe 2 nM; read-out: Menin Binding Affinity IC50

IC50 [µM]	SMILES
0.16	CNC(=O)O[C@@H]1CCC[C@H]1C(C#N)(c1ccccc1)C1CCN(CC2CN(c3ccc(S(=O)(=O)c4nn(C)cc4Br)cc3)C2)CC1 (mixture of isomers) [compound 229, rac-(1R,2S)-2-((1-((1-(4-((4-bromo-1-methyl-1H-pyrazol-3-yl)sulfonyl)phenyl)azetidin-3-yl)methyl)piperidin-4-yl)(cyano)(phenyl)methyl) cyclopentyl methylcarbamate]
0.237	CC(C)C(=O)O[C@H]1CCC[C@@H]1C(C#N)(c1ccccc1)C1CCN(CC2CN(c3ccc(S(=O)(=O)c4ccncc4)cc3)C2)CC1 (mixture of isomers) [compound 193, rac-(1S,2R)-2-(cyano(phenyl)(1-((1-(4-(pyridin-4-ylsulfonyl)phenyl)azetidin-3-yl)methyl)piperidin-4-yl)methyl)cyclopentyl isobutyrate]
0.776	CNC(=O)O[C@@H]1CCC[C@H]1C(C#N)(c1ccccc1)C1CCN(CC2CN(c3ccc(C(C)(C)C)cc3)C2)CC1 (mixture of isomers) [compound 423, rac-(1R,2S)-2-((1-((1-(4-(tert-butyl)phenyl)azetidin-3-yl)methyl)piperidin-4-yl)(cyano)(phenyl)methyl) cyclopentyl methylcarbamate]
2.6	CC(=O)O[C@@H]1CCC[C@H]1C(C#N)(c1ccccc1)C1CCN(CC2CN(c3ccc(S(C)(=O)=O)cc3)C2)CC1 (mixture of isomers) [compound 184, rac-(1R,2S)-2-(cyano(1-((1-(4-(methylsulfonyl)phenyl)azetidin-3-yl)methyl)piperidin-4-yl)(phenyl)methyl)cyclopentyl actate]
0.569	COC(=O)N[C@@H]1CCC[C@H]1C(C#N)(c1ccccc1)C1CCN(CC2CN(c3ccc(S(=O)(=O)c4ccncc4)cc3)C2)CC1 (mixture of isomers) [Cpd. No. 346, methyl (rac-(1R,2S)-2-(cyano(phenyl)(1-((1-(4-(pyridin-4-ylsulfonyl)phenyl)azetidin-3-yl)methyl)piperidin-4-yl)methyl)cyclopentyl)carbamate]
2	N#CC(c1ccccc1)(C1CCN(CC2CN(c3ccc(S(=O)(=O)c4ccncc4)cc3)C2)CC1)[C@@H]1CCC[C@H]1OC(=O)N1CCC1 (mixture of isomers) [compound 222, rac-(1R,2S)-2-(cyano(phenyl)(1-((1-(4-(pyridin-4-ylsulfonyl)phenyl)azetidin-3-yl)methyl)piperidin-4-yl)methyl)cyclopentyl azetidine-1-carboxylate]
0.261	COC(=O)[C@H]1CCC[C@@H]1C(C#N)(c1ccccc1)C1CCN(CC2CN(c3ccc(S(=O)(=O)C4CC4)cc3)C2)CC1 (mixture of isomers) [compound 332, methyl rac-(1S,2S)-2-(cyano(1-((1-(4-(cyclopropylsulfonyl)phenyl)azetidin-3-yl)methyl)piperidin-4-yl)(phenyl)methyl)cyclopentane-1-carboxylate]
25.8	COCC[C@@H]1CCC[C@H]1C(C#N)(c1ccccc1)C1CCN(CC2CN(c3ccc(S(=O)(=O)c4ccnc(C)c4)cc3)C2)CC1 (mixture of isomers) [compound 337, rac-2-((1R,2S)-2-(2-methoxyethyl)cyclopentyl)-2-(1-((1-(4-((2-methylpyridin-4-yl)sulfonyl)phenyl)azetidin-3-yl)methyl)piperidin-4-yl)-2-phenylacetonitrile]
0.004	CNC(=O)O[C@H]1CCC[C@@H]1C(Cn1ccnc1)(c1ccccc1)C1CCN(CC2CN(c3ccc(C(F)(F)F)cc3)C2)CC1 (mixture of isomers) [compound 421, rac-(1S,2R)-2-(2-(1H-imidazol-1-yl)-1-phenyl-1-(1-((1-(4-(trifluoromethyl)phenyl)azetidin-3-yl)methyl)piperidin-4-yl)ethyl)cyclopentyl methylcarbamate]
0.853	N#CC(c1ccccc1)(C1CCN(CC2CN(c3ccc(S(=O)(=O)c4ccncc4)cc3)C2)CC1)[C@@H]1CCC[C@H]1OC(=O)C1CC1 (mixture of isomers) [compound 198, rac-(1R,2S)-2-(cyano(phenyl)(1-((1-(4-(pyridin-4-ylsulfonyl)phenyl)azetidin-3-yl)methyl)piperidin-4-yl)methyl)cyclopentyl cyclopropanecarboxylate]
5.1	COC(=O)N[C@@H]1CCC[C@H]1C(C#N)(c1ccccc1)C1CCN(CC2CN(c3ccc(S(=O)(=O)C4CC4)cc3)C2)CC1 (mixture of isomers) [compound 320, rac-methyl ((1R,2S)-2-(cyano(1-((1-(4-(cyclopropylsulfonyl)phenyl)azetidin-3-yl)methyl)piperidin-4-yl)(phenyl)methyl)cyclopentyl)carbamate]
3.6	CNC(=O)O[C@@H]1CCC[C@H]1C(C#N)(c1ccccc1)C1CCN(CC2(F)CN(c3ccc(S(=O)(=O)c4cnn(C)c4)cc3)C2)CC1 (mixture of isomers) [compound 370, rac-(1R,2S)-2-(cyano(1-((3-fluoro-1-(4-((1-methyl-1H-pyrazol-4-yl)sulfonyl)phenyl)azetidin-3-yl)methyl)piperidin-4-yl)(phenyl)methyl)cyclopentyl methylcarbamate]
0.045	CC(=O)O[C@H]1CCC[C@@H]1C(C#N)(c1ccccc1F)C1CCN(CC2CN(c3ccc(S(=O)(=O)C4CC4)cc3)C2)CC1 (mixture of isomers) [compound 310, rac-(1S,2R)-2-(cyano(1-((1-(4-(cyclopropylsulfonyl)phenyl)azetidin-3-yl)methyl)piperidin-4-yl)(2-fluorophenyl)methyl) cyclopentyl acetate]
0.506	CNC(=O)O[C@@H]1CCC[C@H]1C(C#N)(c1ccccc1)C1CCN(CC2CN(c3ccc(C(F)(F)F)cc3)C2)CC1 (mixture of isomers) [compound 368, rac-(1R,2S)-2-(cyano(phenyl)(1-((1-(4-(trifluoromethyl)phenyl)azetidin-3-yl)methyl)piperidin-4-yl)methyl)cyclopentyl methylcarbamate]
6.9	CC(=O)OC[C@@H]1CCC[C@H]1C(C#N)(c1ccccc1)C1CCN(CC2CN(c3ccc(S(=O)(=O)C4CC4)cc3)C2)CC1 (mixture of isomers) [compound 262, rac-((1R,2R)-2-(cyano(1-((1-(4-(cyclopropylsulfonyl)phenyl)azetidin-3-yl)methyl)piperidin-4-yl)(phenyl)methyl)cyclopentyl) methyl acetate]
0.042	CNC(=O)O[C@@H]1CCC[C@H]1C(Cn1ccnc1)(c1ccccc1)C1CCN(CC2CN(c3ccc(S(=O)(=O)c4ccccc4)cc3)C2)CC1 (mixture of isomers) [compound 237, rac-(1R,2S)-2-(2-(1H-imidazol-1-yl)-1-phenyl-1-(1-((1-(4-(phenylsulfonyl)phenyl)azetidin-3-yl)methyl)piperidin-4-yl)ethyl)cyclopentyl methylcarbamate]
2.4	O=S(=O)(c1ccc(OC2CC(N3CCC(C4(C5CCCC5)NCCc5ccccc54)CC3)C2)cc1)C1CC1 (stereo not drawn) [compound 90, 1-cyclopentyl-1-(1-((1r,3r)-3-(4-(cyclopropylsulfonyl)phenoxy)cyclobutyl)piperidin-4-yl)-1,2,3,4-tetrahydroisoquinoline]

SMILES	IC50 [µM]
N#Cc1ccc(OCCCN2CCC(C(C#N)(c3ccccc3)C3CCCC3)CC2)cc1 (stereo not drawn) [compound 20, 4-(3-(4-(cyano(cyclopentyl)(phenyl)methyl)piperidin-1-yl)propoxy)benzonitrile]	1.3
c1ccc2c(c1)CCNC2(C1CCCC1)C1CCNCC1 (stereo not drawn) [compound 72, 1-cyclopentyl-1-(piperidin-4-yl)-1,2,3,4-tetrahydroisoquinoline]	610
CN1CCc2ccccc2C1(C1CCCC1)C1CCN(CCCOc2ccc(C#N)cc2)CC1 (stereo not drawn) [compound 28, 4-(3-(4-(1-cyclopentyl-2-methyl-1,2,3,4-tetrahydroisoquinolin-1-yl)piperidin-1-yl)propoxy)benzonitrile]	0.379
N#Cc1ccc(OCCCN2CCC(C3(Cc4ccccc4)NCCc4ccccc43)CC2)cc1 (stereo not drawn) [compound 243, 4-(3-(4-(1-benzyl-1,2,3,4-tetrahydroisoquinolin-1-yl)piperidin-1-yl)propoxy)benzonitrile]	4.2
CN1CCC(C2(C3CCCCN3)CN(C)Cc3ccccc32)CC1 (stereo not drawn) [compound 166, 2-methyl-4-(1-methylpiperidin-4-yl)-4-(piperidin-2-yl)-1,2,3,4-tetrahydroisoquinoline]	1410
CCN1Cc2ccccc2C(C2CCCC2)(C2CCN(CC3CN(c4ccc(S(=O)(=O)C5CC5)cc4C)C3)CC2)C1 (stereo not drawn) [compound 96, 4-cyclopentyl-4-(1-((1-(4-(cyclopropylsulfonyl)-2-methylphenyl)azetidin-3-yl)methyl)piperidin-4-yl)-2-ethyl-1,2,3,4-tetrahydroisoquinoline]	0.587
O=C(c1ccn(-c2ccc(S(=O)(=O)C3CC3)cc2)c1)N1CCC(C2(C3CCCC3)NCCc3ccccc32)CC1 (stereo not drawn) [compound 122, (4-(1-cyclopentyl-1,2,3,4-tetrahydroisoquinolin-1-yl)piperidin-1-yl)(1-(4-(cyclopropylsulfonyl)phenyl)-1H-pyrrol-3-yl)methanone]	57.5
N#Cc1ccc(OCCCN2CCC(C3(C4CCCCC4)NCCc4ccccc43)CC2)cc1 (stereo not drawn) [compound 298, 4-(3-(4-(1-cyclohexyl-1,2,3,4-tetrahydroisoquinolin-1-yl)piperidin-1-yl)propoxy)benzonitrile]	0.3
N#Cc1ccc(N2CCC(N3CCC(C4(C5CCCC5)NCCc5ccccc54)CC3)CC2)cc1 (stereo not drawn) [compound 55, 4-(4-(1-cyclopentyl-1,2,3,4-tetrahydroisoquinolin-1-yl)-[1,4′-bipiperidin]-1′-yl)benzonitrile]	0.669
